Results taken from publication PMC9112895, “Selective Inhibition of Plasmodium falciparum ATPase 6 by Artemisinins and Identification of New Classes of Inhibitors after Expression in Yeast” (Antimicrobial Agents and Chemotherapy, 2022).

Assays:
A623E PfATP6 = target: T1, A623E PfATP6 (Plasmodium falciparum, UniProt Q08853, A623E); assay: Yeast whole-cell assay, PfATP6 A623E mutant; assay type: cell-based; details: read-out: IC50 (mean ± SD)
T1 construct: expressed in transfected cells; host or cells: Saccharomyces cerevisiae K667-derived strain
T1 sequence (Q08853 1-1228 A623E): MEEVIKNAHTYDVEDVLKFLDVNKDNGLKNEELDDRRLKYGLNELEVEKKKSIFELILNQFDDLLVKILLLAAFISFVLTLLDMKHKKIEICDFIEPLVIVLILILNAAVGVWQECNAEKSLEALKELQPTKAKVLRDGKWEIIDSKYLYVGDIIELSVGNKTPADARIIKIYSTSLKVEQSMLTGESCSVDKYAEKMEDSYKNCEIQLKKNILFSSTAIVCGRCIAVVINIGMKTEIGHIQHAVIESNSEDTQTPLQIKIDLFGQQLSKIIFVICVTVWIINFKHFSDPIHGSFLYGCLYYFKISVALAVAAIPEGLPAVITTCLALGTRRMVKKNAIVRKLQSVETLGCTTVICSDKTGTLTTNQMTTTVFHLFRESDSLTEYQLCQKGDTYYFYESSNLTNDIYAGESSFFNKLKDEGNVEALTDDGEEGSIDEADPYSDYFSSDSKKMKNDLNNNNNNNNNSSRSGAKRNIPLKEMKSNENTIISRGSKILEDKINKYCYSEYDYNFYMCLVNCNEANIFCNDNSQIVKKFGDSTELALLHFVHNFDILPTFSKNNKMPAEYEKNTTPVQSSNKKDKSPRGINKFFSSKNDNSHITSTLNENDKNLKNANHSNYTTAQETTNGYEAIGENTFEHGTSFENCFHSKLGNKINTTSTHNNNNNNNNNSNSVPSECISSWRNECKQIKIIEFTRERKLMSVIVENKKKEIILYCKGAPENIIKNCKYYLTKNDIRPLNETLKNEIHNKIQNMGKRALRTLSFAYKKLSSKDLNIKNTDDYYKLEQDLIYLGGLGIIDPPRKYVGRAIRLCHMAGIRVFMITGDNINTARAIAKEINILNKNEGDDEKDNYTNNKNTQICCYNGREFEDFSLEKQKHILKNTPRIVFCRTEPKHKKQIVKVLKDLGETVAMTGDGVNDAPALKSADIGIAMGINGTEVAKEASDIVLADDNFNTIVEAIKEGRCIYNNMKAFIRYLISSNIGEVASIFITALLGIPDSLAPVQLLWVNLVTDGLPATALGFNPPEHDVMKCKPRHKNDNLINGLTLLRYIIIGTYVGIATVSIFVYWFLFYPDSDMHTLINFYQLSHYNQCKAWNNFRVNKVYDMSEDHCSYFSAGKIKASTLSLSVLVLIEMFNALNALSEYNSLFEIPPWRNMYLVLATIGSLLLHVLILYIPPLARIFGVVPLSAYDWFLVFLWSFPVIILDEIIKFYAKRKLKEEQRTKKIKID
Method: Yeast transformations were performed using the method described by Gietz and Schiestl ([48]), and transformants were selected by an uracil auxotrophic marker. Transformations were confirmed by colony PCR. Both K667 and K667Δpdr5::HIS were transformed with the following plasmids: pUGpd plasmid as a vector-only control (derived from pRS316 [49]); br434 plasmid (derived from pRS316 [50]) containing the SERCA1a coding region from rabbit skeletal fast-twitch muscle (pbr434-SERCA1a); and pUGpd containing the yeast-optimized coding region of PfATP6 from Plasmodium falciparum (pUGpd-PfATP6). Site-directed mutagenesis was performed on the SERCA1a coding region to produce the mutation E255L in the protein. Mutations were also introduced into the PfATP6 coding region to produce mutations L263E, A623E, and S769N and the double mutation A623E/S769N ([13]).
The screening assay used here was developed from the protocol used by Pulcini et al. ([13]). […] The optimal calcium concentration was periodically monitored and, if necessary, adjusted using a calcium concentration range of 10 to 30 mM. […] The yeast growth was estimated from the absorbance at 620 nm in a Tecan plate reader. […] The data collected were analyzed using GraphPad Prism v9.0 (GraphPad software, San Diego, CA, U.S.A).

PfATP6 = PfATP6 (Plasmodium falciparum, UniProt Q08853); assay: In vitro activity assay, PfATP6 (membrane-bound); assay type: biochemical; parameters: pUGpd containing the yeast-optimized coding region of PfATP6 from Plasmodium falciparum; expressed in transfected cells; details: 1 μM free calcium
Method: Activity assays were performed as described by Longland et al. ([55]) and LeBel et al. ([56]), except that the reaction mixtures were incubated at 30°C instead of 37°C. […] Then, 5.8 mM ATP was added and incubated for an additional 15 min at 30°C. The reaction was stopped with 0.5 mL 6.5% trichloroacetic acid (TCA) on ice, and the mixture was centrifuged at 4°C for 10 min at 16,000 × g; 0.5 mL of the supernatant was added to 1.5 mL of copper acetate buffer (0.25% copper sulfate pentahydrate, 4.6% sodium acetate trihydrate, dissolved in 2 M acetic acid [pH 4.0]) and mixed by vortex-mixing before the addition of 0.25 mL of 5% ammonium molybdate, followed by 0.25 mL METOL buffer (2% p-methyl-aminophenol sulfate, 5% sodium sulfite). Samples were incubated for 10 min, and the absorbance was measured at 870 nm in a spectrophotometer. The Pi standard was 0.4387 g/100 mL KH2PO4.

Chain of PfATP6 (Q08853 whole entry): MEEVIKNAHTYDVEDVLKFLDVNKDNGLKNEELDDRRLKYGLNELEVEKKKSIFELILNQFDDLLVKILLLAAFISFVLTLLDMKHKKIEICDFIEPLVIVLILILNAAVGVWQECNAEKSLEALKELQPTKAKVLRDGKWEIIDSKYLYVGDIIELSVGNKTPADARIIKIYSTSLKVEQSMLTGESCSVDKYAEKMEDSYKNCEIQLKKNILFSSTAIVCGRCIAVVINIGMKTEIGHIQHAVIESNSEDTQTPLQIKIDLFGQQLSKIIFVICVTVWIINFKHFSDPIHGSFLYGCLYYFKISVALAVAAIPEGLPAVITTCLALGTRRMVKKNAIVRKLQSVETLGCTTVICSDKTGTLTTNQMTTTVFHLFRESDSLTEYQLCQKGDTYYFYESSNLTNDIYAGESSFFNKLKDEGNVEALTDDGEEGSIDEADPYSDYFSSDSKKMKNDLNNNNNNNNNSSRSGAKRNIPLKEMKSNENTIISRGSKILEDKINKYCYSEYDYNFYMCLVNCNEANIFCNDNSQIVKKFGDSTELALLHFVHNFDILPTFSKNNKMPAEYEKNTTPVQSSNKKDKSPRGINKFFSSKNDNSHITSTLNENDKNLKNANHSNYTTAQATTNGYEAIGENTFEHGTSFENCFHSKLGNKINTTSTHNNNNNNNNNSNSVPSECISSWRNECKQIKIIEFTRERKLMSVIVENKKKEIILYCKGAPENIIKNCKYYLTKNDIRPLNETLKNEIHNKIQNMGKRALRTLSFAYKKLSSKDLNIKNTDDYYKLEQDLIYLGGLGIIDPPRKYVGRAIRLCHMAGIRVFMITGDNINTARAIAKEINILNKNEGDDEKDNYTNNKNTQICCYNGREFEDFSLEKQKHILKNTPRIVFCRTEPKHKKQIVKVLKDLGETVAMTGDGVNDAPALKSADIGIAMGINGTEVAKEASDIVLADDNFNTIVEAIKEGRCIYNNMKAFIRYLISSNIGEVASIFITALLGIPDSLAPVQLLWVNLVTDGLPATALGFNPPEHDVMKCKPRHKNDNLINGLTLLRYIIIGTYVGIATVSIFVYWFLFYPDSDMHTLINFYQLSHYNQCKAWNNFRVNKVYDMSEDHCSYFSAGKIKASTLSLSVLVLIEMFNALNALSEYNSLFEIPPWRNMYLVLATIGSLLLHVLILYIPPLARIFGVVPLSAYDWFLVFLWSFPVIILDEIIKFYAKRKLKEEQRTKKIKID

CC(=O)C1=C(O)[C@@H]2[C@H]3c4c[nH]c5cccc(c45)C[C@H]3C(C)(C)N2C1=O [CPA, cyclopiazonic acid]
IC50 (A623E PfATP6): 5.86 µM
in vitro activity of PfATP6 versus no drug control (PfATP6): No significant
